# From US11730817B2, “Pro-cyclic dinucleotides and pro-cyclic dinucleotide conjugates for cytokine induction” (INVIVOGEN, priority 2017, dated 2023)
# Tests used:
# Type I IFNs = assay: Whole-blood assay, type I IFN induction (HEK-Blue IFN-α/β-KO-STING readout); assay type: cell-based, human; conditions: relative to CL656 at 1 μM
# STING [1] = biological target: STING (Homo sapiens, UniProt Q86WV6, G230A/H232R/R293Q/R71H); assay: ISG54 (IRF pathway) reporter assay in THP1-Dual cells
# STING [2] = assay: ISG activity of protein:CDN and antigen:CDN conjugates in reporter cell lines; assay type: cell-based
# Source text: In the present invention, we evaluated using reporter cell lines the ISG activity of protein:CDN conjugates using in vitro conditions favorable to the release of both components.
# PDL1 = PDL1 (Homo sapiens, UniProt Q9NZQ7); assay: Antigen binding ELISA of anti-PDL1mAb:CDN conjugate; conditions: relative to anti PDL1 at 10 μg/mL
# PDL1, sequence (Q9NZQ7 19-290, species assumed): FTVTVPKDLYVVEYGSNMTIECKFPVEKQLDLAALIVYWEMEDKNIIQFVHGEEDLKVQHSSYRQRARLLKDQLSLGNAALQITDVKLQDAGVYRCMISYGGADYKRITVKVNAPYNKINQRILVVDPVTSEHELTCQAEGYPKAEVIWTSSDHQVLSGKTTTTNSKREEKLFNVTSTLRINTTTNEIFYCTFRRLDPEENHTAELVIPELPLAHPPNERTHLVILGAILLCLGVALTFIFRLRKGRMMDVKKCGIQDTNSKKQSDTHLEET
# Source text: We performed Whole Blood Assay on healthy human donors to evaluate the ability of the anti-PDL1mAb:CDN conjugate (Compound 47) to induce type I interferons as described previously in Example 2.2. The binding properties of the anti-PDL1mAb:CDN conjugate have been evaluated using ELISA.
# STING (Homo sapiens, UniProt Q86WV6, G230A/H232R/R293Q/R71H), sequence (Q86WV6 whole entry R71H/G230A/H232R/R293Q): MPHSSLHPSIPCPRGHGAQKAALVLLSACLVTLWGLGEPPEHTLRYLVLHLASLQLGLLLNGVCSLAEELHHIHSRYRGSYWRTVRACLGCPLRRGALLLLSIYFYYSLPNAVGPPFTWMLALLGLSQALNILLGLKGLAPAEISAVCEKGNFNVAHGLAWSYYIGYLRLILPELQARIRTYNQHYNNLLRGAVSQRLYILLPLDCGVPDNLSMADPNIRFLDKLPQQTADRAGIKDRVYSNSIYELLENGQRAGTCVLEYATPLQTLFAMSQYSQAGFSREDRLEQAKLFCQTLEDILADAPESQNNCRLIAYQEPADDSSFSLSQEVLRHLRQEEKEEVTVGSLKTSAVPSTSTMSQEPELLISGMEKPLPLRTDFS
molecule,measurement,setting,value
"Nc1ncnc2c1ncn2[C@@H]1O[C@@H]2COP(=O)(S)O[C@H]3[C@@H](F)[C@H](n4cnc5c(=O)[nH]cnc54)O[C@@H]3COP(=O)(S)O[C@H]2[C@H]1F (stereo partly shown) [CL656, 3′3′-cAIM(PS)2 Difluor (Rp/Sp)]",IFN activity @ 50 μg/mL in WBA (% of CL656 @ 1 μM),Type I IFNs,100%
same,EC50,STING [1],1000 nM
same,Fold ISG induction vs unstimulated @10 μM,"STING [1]; 10 μM, THP1-Dual cells",215 fold
same,ISG activity @ 50 μg/mL (% of CL656 @ 1 μM),STING [2]; antigen:CDN conjugates,100%
same,ISG activity @ 50 μg/mL (% of parental CND @ 1 μM),STING [2]; in vitro conditions favorable to release of both components,100%
Atezolizumab,IFN activity @ 50 μg/mL in WBA (% of CL656 @ 1 μM),Type I IFNs,0%
same,Antigen binding (% of anti PDL1 @ 10 μg/mL),PDL1,100%
